# Biological target: T1, tyrosinase (Mus musculus, UniProt P11344)
# T1 construct: the supernatant obtained constitutes the cell lysate used as tyrosinase source in the enzymatic assay; endogenous in cells; host or cells: B16F1 murine melanoma cells, cultured with alpha-MSH; detergent/ultrasound lysate supernatant
# T1 sequence (P11344 19-533): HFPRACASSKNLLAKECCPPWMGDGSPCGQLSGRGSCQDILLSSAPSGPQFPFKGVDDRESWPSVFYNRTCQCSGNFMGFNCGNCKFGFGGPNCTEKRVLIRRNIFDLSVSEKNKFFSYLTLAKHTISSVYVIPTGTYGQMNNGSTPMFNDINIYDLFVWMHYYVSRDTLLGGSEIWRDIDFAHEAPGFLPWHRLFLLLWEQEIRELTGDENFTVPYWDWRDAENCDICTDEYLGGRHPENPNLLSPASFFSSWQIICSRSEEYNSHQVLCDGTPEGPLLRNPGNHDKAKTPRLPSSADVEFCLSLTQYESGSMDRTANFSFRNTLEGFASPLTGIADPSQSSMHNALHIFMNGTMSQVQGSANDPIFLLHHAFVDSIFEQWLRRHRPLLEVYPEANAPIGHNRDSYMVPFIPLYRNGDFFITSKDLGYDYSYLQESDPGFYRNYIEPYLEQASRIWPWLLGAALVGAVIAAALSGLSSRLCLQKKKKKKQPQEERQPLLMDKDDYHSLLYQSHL
# Experiment: Tyrosinase activity inhibition assay (B16F1 cell lysate, L-tyrosine substrate, MBTH, absorbance at 520 nm)
# Assay type: biochemical
# Conditions: lysate of B16F1 cells (murine melanoma line) as tyrosinase source; 37° C., reading at 520 nm after 6 hours; read-out: Tyrosine hydroxylase/Dopa oxidase IC50
# Protocol: The activity of the inhibitors is measured starting from a lysate of B16F1 cells (murine melanoma line). In the presence of the L-tyrosine substrate, the tyrosinase present in these cells catalyses the hydroxylation of L-tyrosine to give L-DOPA and then the oxidation of the L-DOPA to give dopaquinone. In the presence of MBTH (3-methyl-2-benzothiazolinone hydrazone), the dopaquinone is trapped so as to form a pink complex which absorbs at 520 nm.
# The B16F1 cells are cultured in DMEM medium+10% foetal calf serum+10^−9 M α-MSH for 4 days at 37° C. under 7% CO2. They are treated with trypsin, washed with PBS, counted and pelleted. The pellet is taken up at 10^7 cells/ml in lysis buffer (10 mM sodium phosphate, pH 6.8-1% Igepal) and the suspension is treated with ultrasound for 10 seconds. After centrifugation for 30 minutes at 4000 rpm, the supernatant obtained constitutes the cell lysate used as tyrosinase source in the enzymatic assay.
# The assays are carried out in duplicate in 384-well plates in a total volume of 50 μl. Each well contains:
# 40 μl of solution containing 1.25 mM L-tyrosine, 6.25 μM L-DOPA (cofactor) and 3.75 mM MBTH in buffer B (62.25 mM sodium phosphate, pH 6.8-2.5% dimethylformamide),
# 5 μl of inhibitor diluted in DMSO,
# 5 μl of cell lysate diluted to ½ in 50 mM Tris HCl buffer, pH 7.5.
# The plate is incubated at 37° C. and a spectrophotometric reading is carried out at 520 nm after incubating for 6 hours. To avoid any possible absorption of the products, the system uses corrected absorbance (absorbance at time 6 h−absorbance at time zero).
# The inhibitors are assayed in terms of dose-response so as to calculate an IC50 (dose which inhibits 50% of the enzymatic activity).
# Several internal controls are added to each experiment:
# control for 100% activity: the 5 μl of inhibitor are replaced with 5 μl of DMSO,
# control for 50% activity: the 5 μl of inhibitor are replaced with 5 μl of phenylthiourea at 300 μM in DMSO,
# control for 0% activity: the L-tyrosine substrate is replaced with buffer B.
row,IC50 [nM],SMILES
1,300,"OCc1ccc(-c2c[nH]c(=S)[nH]2)cc1 [Compound 7, 4-(4-(Hydroxymethyl)phenyl)-1,3-dihydroimidazole-2-thione]"
2,200,"O=C(O)c1ccc(-c2c[nH]c(=S)[nH]2)cc1 [Compound 3, 4-(4-Carboxyphenyl)-1,3-dihydroimidazole-2-thione]"
3,400,"FC(F)Oc1ccc(-c2c[nH]c(=S)[nH]2)cc1 [Compound 9, 4-(4-(Difluoromethoxy)phenyl)-1,3-dihydroimidazole-2-thione]"
4,1400,"COc1cccc(-c2c[nH]c(=S)[nH]2)c1 [Compound 11, 4-(3-Methoxyphenyl)-1,3-dihydroimidazole-2-thione]"

# From patent publication US8119674B2, “4-phenylimidazole-2-thione tyrosinase inhibitors and pharmaceutical/cosmetic applications thereof” (Galderma Research & Development, priority 2007, dated 2012)
